Measurements published in patent US8329705B2, “Substituted triazolo-pyrazine compounds” (ArQule, Inc., priority 2009, dated 2012).

Tests used:
[1] = tested on: DLD-1 cancer cells; experiment: MTS assay, DLD-1 cells; format: cell-based; parameters: concentration or dose not given beside the values
Method: (§1) Cells were maintained at 37° C., 5% CO2 in DMEM media supplemented with 1% fetal bovine serum, penicillin/streptomycin and fungizone (Invitrogen). Cells were seeded into 96-well tissue culture plates at 3000 per well and cultured at 37° C. for 18 hours. Test compounds were dissolved and diluted to 300× in DMSO then diluted 1:40 in DMEM. Cells were incubated with test compounds for 72 hours followed by incubation with tetrazolium compound (3-(4,5-dimethylthiazol-2-yl)-5-(3-carboxymethoxyphenyl)-2-(4-sulfophenyl)-2H-tetrazolium, inner salt; MTS) and the electron coupling reagent, phenazine methosulfate (PMS) for 4 hours. […] The ability of compounds to inhibit cell growth in this assay is correlated with the reduction of dehydrogenase enzyme activity found in metabolically active cells. The measurement of the absorbance of the formazan was assessed using a Victor (Perkin Elmer) microplate reader at 492 nm. The calculated IC50 value is the concentration of the test compound that causes a 50% decrease in the absorbance. Percent inhibition by representative compounds of the present invention in MDA-MB231 and DLD-1 cancer cells is shown in Table 4.

[2] = tested on: MDA-MB-231 cancer cells; experiment: MTS assay, MDA-MB-231 cells; format: cell-based; parameters: concentration or dose not given beside the values
Method: as §1

[3] = biological target: T1, FGFR2 (N549H) (Homo sapiens, UniProt P21802, N549H); experiment: FGFR2 kinase activity assay (fluorescent ELISA); format: biochemical; conditions: 30 μM compound
T1 construct: purchased Millipore 14-742
T1 sequence (P21802 22-821 N549H): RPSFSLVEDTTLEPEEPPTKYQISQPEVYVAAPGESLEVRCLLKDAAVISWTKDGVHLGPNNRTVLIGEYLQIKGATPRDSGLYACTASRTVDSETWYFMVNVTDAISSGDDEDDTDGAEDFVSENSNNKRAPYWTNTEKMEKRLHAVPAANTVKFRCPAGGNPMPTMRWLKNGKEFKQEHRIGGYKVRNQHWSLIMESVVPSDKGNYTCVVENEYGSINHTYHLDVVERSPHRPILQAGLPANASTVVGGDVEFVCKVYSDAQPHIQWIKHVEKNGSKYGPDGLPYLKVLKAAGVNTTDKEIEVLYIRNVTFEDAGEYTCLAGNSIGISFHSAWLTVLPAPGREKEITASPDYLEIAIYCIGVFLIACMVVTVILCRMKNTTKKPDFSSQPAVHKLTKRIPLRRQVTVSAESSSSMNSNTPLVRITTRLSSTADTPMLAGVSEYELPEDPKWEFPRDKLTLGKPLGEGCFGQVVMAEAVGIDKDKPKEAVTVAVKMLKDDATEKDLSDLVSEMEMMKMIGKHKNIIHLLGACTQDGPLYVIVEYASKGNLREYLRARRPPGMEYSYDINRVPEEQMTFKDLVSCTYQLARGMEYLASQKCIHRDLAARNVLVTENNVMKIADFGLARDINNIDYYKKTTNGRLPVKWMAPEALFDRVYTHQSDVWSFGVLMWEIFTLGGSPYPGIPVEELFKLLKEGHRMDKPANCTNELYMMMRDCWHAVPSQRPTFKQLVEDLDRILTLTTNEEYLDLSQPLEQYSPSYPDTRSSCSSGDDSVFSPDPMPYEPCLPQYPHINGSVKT
Method: A fluorescent ELISA assay was developed to identify and characterize inhibitors of FGFR2 kinase. This heterogeneous assay utilized a biotinylated peptide with a tyrosine motif as a substrate and an anti-phospho-tyrosine antibody to measure phosphorylation of the substrate. The reaction was initiated by adding a test compound, 37 uM Pyk2 substrate (Midwest Biotech, cat. #MBT2383), 12.5 uM ATP (Roche, cat. #11 140 965 001), and 0.5 uM FGFR2 enzyme (Millipore, cat. #14-742) sequentially to a non-binding polypropylene V-well plate. All reagents were in assay buffer consisting of: 50 mM Tris-HCL, 0.02 mg/mL BSA, 10 mM MgCl2, 0.1 mM Na3VO4, 1 mM EGTA, […], 0.01% NP-40, 2 mM DTT, 10% Glycerol. The reaction was incubated for 60 minutes. As the reaction proceeded, FGFR2 phosphorylated tyrosines in the peptide. The reaction mixture was then moved to a blocked streptavidin coated Nunc Maxisorb plate (coated with 100 ng streptavidin from Pierce (cat #15-124) per well) allowing for the capture of the biotinylated peptide. Peptide was captured for 30 minutes at room temperature, the phosphorylation of peptide continues during this phase. The reaction was stopped by washing the Streptavidin plate 6 times with TBST. Phosphorylated peptide was detected by adding anti-phospho tyrosine antibody (purchased from Cell Signaling, cat. #9411, diluted 1:3000), unbound antibody was removed by washing 6 times with TBST. Secondary detection was performed using Alkaline Phosphatase tagged goat anti-mouse antibody (purchased from Pierce, cat. #31320, diluted 1:4000) for one hour. Unbound secondary antibody was removed by washing 6 times with TBST.
The fluorescent readout was initiated by the addition of Promega Attophos substrate (purchased from Promega; Kit catalog number: S1000, dilution=6 mg/10 mL), which when dephosphorylated by Alkaline phosphatase emitted a fluorescent signal of […] when excited by a signal […]. This reading was done on the Perkin Elmer Envision system. […] The signal was directly proportional to the activity of FGFR2 and compound inhibition of FGFR2 was monitored by a decrease in signal.

Compound: COc1cccc(Nc2nccn3c(NC(=O)OC(C)C)nnc23)c1 [Compound 5]
- DLD-1, MTS, 72 hours (% Inhibition) [1]: 96%
- MDA-MB-231, MTS, 72 hours (% inhibition) [2]: 98%

Compound: Cc1ccnc(N(Cc2ccccc2)c2nccn3c(NC(=O)OC(C)C)nnc23)c1 [Compound 8, Isopropyl {8-[benzyl(4-methylpyridin-2-yl)amino][1,2,4]triazolo[4,3-a]pyrazin-3-yl}carbamate]
- DLD-1, MTS, 72 hours (% Inhibition) [1]: 99%
- MDA-MB-231, MTS, 72 hours (% inhibition) [2]: 94%

Compound: CC(C)OC(=O)Nc1nnc2c(NCCC3CCCN3C)nccn12 (stereo not shown) [Compound 21, Isopropyl (8-{[2-(1-methylpyrrolidin-2-yl)ethyl]amino}[1,2,4]triazolo[4,3-a]pyrazin-3-yl)carbamate]
- DLD-1, MTS, 72 hours (% Inhibition) [1]: 58%
- MDA-MB-231, MTS, 72 hours (% inhibition) [2]: 69%

Compound: Cc1ccc(N(C)c2nccn3c(N)nnc23)cc1 [Compound 107, N^8-methyl-N^8-(4-methylphenyl)[1,2,4]triazolo[4,3-a]pyrazine-3,8-diamine]
- inhibition at 30 µM [3]: 86.1%

Compound: CN(C)c1ccc(Nc2nccn3c(N)nnc23)cc1 [Compound 116, N^8-[4-(dimethylamino)phenyl][1,2,4]triazolo[4,3-a]pyrazine-3,8-diamine]
- inhibition at 30 µM [3]: 50%

Compound: COc1ccc(CCNc2nccn3c(N)nnc23)cc1 [Compound 117, N^8-[2-(4-methoxyphenyl)ethyl][1,2,4] triazolo[4,3-a]pyrazine-3,8-diamine]
- DLD-1, MTS, 72 hours (% Inhibition) [1]: 97%
- MDA-MB-231, MTS, 72 hours (% inhibition) [2]: 99%

Compound: Cc1cccc(Nc2nccn3c(N)nnc23)c1 [Compound 118, N^8-(3-methylphenyl)[1,2,4]triazolo[4,3-a]pyrazine-3,8-diamine]
- inhibition at 30 µM [3]: 50.4%

Compound: Nc1nnc2c(Nc3ccccc3F)nccn12 [Compound 121, N^8-(2-fluorophenyl)[1,2,4]triazolo[4,3-a]pyrazine-3,8-diamine]
- inhibition at 30 µM [3]: 65.7%

Compound: COc1ccc(C)cc1Nc1nccn2c(N)nnc12 [Compound 124, N^8-(2-methoxy-5-methylphenyl)[1,2,4]triazolo[4,3-a]pyrazine-3,8-diamine]
- inhibition at 30 µM [3]: 73.5%

Compound: Cc1cccc(CNc2nccn3c(N)nnc23)c1C [Compound 131, N^8-(2,3-dimethylbenzyl)[1,2,4]triazolo[4,3-a]pyrazine-3,8-diamine]
- inhibition at 30 µM [3]: 65.7%

Compound: CCc1ccc(CNc2nccn3c(N)nnc23)cc1 [Compound 139, N^8-(4-ethylbenzyl)[1,2,4]triazolo[4,3-a]pyrazine-3,8-diamine]
- inhibition at 30 µM [3]: 96.3%

Compound: Nc1nnc2c(NCc3ccc(Br)cc3)nccn12 [Compound 140, N^8-(4-bromobenzyl)[1,2,4]triazolo[4,3-a]pyrazine-3,8-diamine]
- inhibition at 30 µM [3]: 52.9%

Compound: Nc1nnc2c(Nc3cccc(Br)c3)nccn12 [Compound 142, N^8-(3-bromophenyl)[1,2,4]triazolo[4,3-a]pyrazine-3,8-diamine]
- inhibition at 30 µM [3]: 59.9%

Compound: Nc1nnc2c(NCc3ccccc3C(F)(F)F)nccn12 [Compound 143, N^8-[2-(trifluoromethyl)benzyl][1,2,4]triazolo[4,3-a]pyrazine-3,8-diamine]
- inhibition at 30 µM [3]: 73.2%

Compound: COc1ccc(N(C)c2nccn3c(N)nnc23)cc1 [Compound 152, N^8-(4-methoxyphenyl)-N^8-methyl[1,2,4]triazolo[4,3-a]pyrazine-3,8-diamine]
- inhibition at 30 µM [3]: 109%

Compound: Nc1nnc2c(NCc3ccccc3F)nccn12 [Compound 153, N^8-(2-fluorobenzyl)[1,2,4]triazolo[4,3-a]pyrazine-3,8-diamine]
- inhibition at 30 µM [3]: 72.9%

Compound: COc1ccc(Cl)c(Nc2nccn3c(N)nnc23)c1 [Compound 154, N^8-(2-chloro-5-methoxyphenyl)[1,2,4]triazolo[4,3-a]pyrazine-3,8-diamine]
- inhibition at 30 µM [3]: 82.8%

Compound: CN(c1cccc(Cl)c1)c1nccn2c(N)nnc12 [Compound 155, N^8-(3-chlorophenyl)-N^8-methyl[1,2,4]triazolo[4,3-a]pyrazine-3,8-diamine]
- inhibition at 30 µM [3]: 57.4%
